What was measured:
Type in all cases: cell-based, human
normal skin fibroblasts = experiment: Elastin immunostaining in 7-day cultures of normal skin fibroblasts; conditions: 7-day cultures
Experimental: (§1) Biological effects of aldosterone and spironolactone were tested in cultures of dermal fibroblasts derived from normal skin, stretch-marked skin and dermal scars derived from Caucasian females, of different ages ranging from 30-38 years old. All fibroblasts were originally isolated by allowing them to migrate out of skin explants and then passaged by trypsinization and maintained in alpha-minimum essential medium supplemented with 20 mM Hepes, 1% antibiotics and antimycotics, 1% L-Glutamate and 2% fetal bovine serum (FBS) as previously described Hinek et al. “Impaired elastic-fiber assembly by fibroblasts from patients with either Morquio B disease or infantile GM1-gangliosidosis is linked to deficiency in the 67-kD spliced variant of beta-galactosidase.” Am J Hum Genet. 2000 July; 67(1):23-36 hereby incorporated by reference in its entirety. In all experiments, consecutive passages 3-4 were tested. Cells were densely plated (50×10^5 cells/dish) to reach confluency and then cultured for 7 days in the presence and absence of different concentrations of (10 nM-1 μM) aldosterone, 2 μM spironolactone, alone or in combinations with other reagents, as described in figure legends.
7-day-old cultures of fibroblasts, which produce abundant ECM, were assessed. All cultures were fixed in cold 100% methanol at −20° C. for 30 min, and then incubated for 1 hour with 2 μg/ml of polyclonal antibody to tropoelastin. Cultures were then incubated for an additional hour with appropriate fluorescein-conjugated secondary antibody (GAR-FITC). Nuclei were counterstained with propidium iodide. Morphometric analysis of five separate cultures in each experimental group, immunostained with antibodies recognizing extracellular matrix components, was performed using a computerized video analysis system (Image-Pro Plus software 3.0, Media Cybernetics, Silver Spring, Md.) as described previously in Hinek et al. “Decreased elastin deposition and high proliferation of fibroblasts from Costello syndrome are related to functional deficiency in the 67-kD elastin-binding protein.” Am J Hum Genet. 2000 March; 66(3):859-72 and Hinek and Wilson, “Impaired elastogenesis in Hurler disease: dermatan sulfate accumulation linked to deficiency in elastin-binding protein and elastic fiber assembly.” Am J Pathol. 2000 March; 156(3):925-38 both of which are hereby incorporated by reference in their entireties.

[1] = tested on: fibroblasts derived from dermal scar tissue; experiment: Elastin immunostaining in 7-day cultures of dermal scar fibroblasts; conditions: 50 nM aldosterone alone or with 2 μM spironolactone; vs untreated control or spironolactone only
Experimental: as §1
7-day-old cultures of fibroblasts, which produce abundant ECM, were assessed. All cultures were fixed in cold 100% methanol at −20° C. for 30 min, and then incubated for 1 hour with 2 μg/ml of polyclonal antibody to tropoelastin. Cultures were then incubated for an additional hour with appropriate fluorescein-conjugated secondary antibody (GAR-FITC). Nuclei were counterstained with propidium iodide. Morphometric analysis of five separate cultures in each experimental group, immunostained with antibodies recognizing extracellular matrix components, was performed using a computerized video analysis system (Image-Pro Plus software 3.0, Media Cybernetics, Silver Spring, Md.) as described previously in Hinek et al. “Decreased elastin deposition and high proliferation of fibroblasts from Costello syndrome are related to functional deficiency in the 67-kD elastin-binding protein.” Am J Hum Genet. […]

[2] = tested on: fibroblasts derived from dermal scar tissue; experiment: [3H]-valine incorporation into insoluble elastin, dermal scar fibroblasts; conditions: 50 nM aldosterone alone or with 2 μM spironolactone
Experimental: Biological effects of aldosterone and spironolactone were tested in cultures of dermal fibroblasts derived from normal skin, stretch-marked skin and dermal scars derived from Caucasian females, of different ages ranging from 30-38 years old. All fibroblasts were originally isolated by allowing them to migrate out of skin explants and then passaged by trypsinization and maintained in alpha-minimum essential medium supplemented with 20 mM Hepes, 1% antibiotics and antimycotics, 1% L-Glutamate and 2% fetal bovine serum (FBS) as previously described Hinek et al. “Impaired elastic-fiber assembly by fibroblasts from patients with either Morquio B disease or infantile GM1-gangliosidosis is linked to deficiency in the 67-kD spliced variant of beta-galactosidase.” Am J Hum Genet. 2000 July; 67(1):23-36 hereby incorporated by reference in its entirety. […]
Quintuplicate, 4 day-old cultures of dermal fibroblasts maintained in the presence and absence of indicated reagents were additionally exposed for the 3 following days to 20 μCi [^3H]-valine. […] The resulting pellets containing the insoluble elastin were then solubilized by boiling in 200 μl of 5.7 N HCl for 1 hour, and the aliquots were mixed in scintillation fluid and counted. […] Final results reflecting amounts of metabolically labeled insoluble elastin in individual cultures were normalized per their DNA content, and expressed as CPM/1 μg DNA.

With `C[C@]12CCC(=O)C=C1CC[C@@H]1[C@@H]2[C@@H](O)C[C@]2(C=O)[C@@H](C(=O)CO)CC[C@@H]12` [aldosterone] the “concentration of elastin (anti-elastin immunostaining)” value (normal skin fibroblasts; 10 nM, 50 nM, 1 μM aldosterone vs untreated) was “increased in an aldosterone concentration specific manner”, the “deposition of elastin (anti-elastin immunostaining)” value (normal skin fibroblasts; 50 ng/ml IGF-I, 50 nM aldosterone, alone or together, vs untreated control) was “enhanced deposition of elastin” and the “elastin stained by anti-elastin antibodies” value [1] was “increase in elastin”. For the same molecule, the “deposition of insoluble mature elastin ([3H]-valine incorporation)” value [2] was “enhanced”.
